Results published in ChEMBL document CHEMBL5523687, “Pentafluorosulfanyl-substituted biaryl derivatives as MATE-type transporter inhibitors targeting drug-resistant bacteria” (Bioorg Med Chem, 2024).
Values after ≈ are worked out from the molar mass of the structure shown. Active and inactive are the calls of the source. The calls are words filed in the database; no cut-off is given here.

Key:
[1] = test system: Escherichia coli; assay: Inhibition of MATE-type HmrM in norfloxacin-resistant Escherichia coli KAM32 assessed as norfloxacin antibacterial activity by measuring norfloxacin MIC measured for 18 hrs incubation by CLSI based microplate reader analysis
[2] = test system: Escherichia coli; assay: Inhibition of MATE-type HmrM in norfloxacin-resistant Escherichia coli KAM32 assessed as norfloxacin antibacterial activity efficacy at 30 uM measured for 18 hrs incubation by CLSI based microplate reader analysis relative to norfloxacin alone
[3] = Inhibition of MATE-type HmrM (unknown origin); parameters: species or system Bacteria
[4] = test system: Escherichia coli; assay: Antibacterial activity against Escherichia coli KAM32 harboring PBR322 hmrM assessed as effect on bacterial growth at 10 uM measured for 30 hrs by microplate reader analysis; assay type: functional, organism-based
[5] = test system: Bacteria; assay: Inhibition of MATE-type HmrM (unknown origin) at 100 uM relative to control
[6] = test system: Escherichia coli; assay: Antibacterial activity against Norfloxacin resistant Escherichia coli KAM32 harboring PBR322 assessed as inhibition of bacterial growth by measuring efficacy at 30 uM measured for 18 hrs by CLSI based analysis relative to control; assay type: functional
[7] = test system: Escherichia coli; assay: Antibacterial activity against Norfloxacin sensitive Escherichia coli KAM32 harboring PBR322 assessed as reduction in bacterial growth measured for 18 hrs by CLSI based analysis; assay type: functional
[8] = test system: Escherichia coli; assay: Antibacterial activity against Norfloxacin resistant Escherichia coli KAM32 harboring PBR322 hmrM assessed as reduction in bacterial growth measured for 18 hrs by CLSI based analysis; assay type: functional
[9] = test system: Escherichia coli; assay: Antibacterial activity against Norfloxacin sensitive Escherichia coli KAM32 harboring PBR322 assessed as inhibition of bacterial growth by measuring efficacy at 30 uM measured for 18 hrs by CLSI based analysis relative to control; assay type: functional

| SMILES | MIC [1] [µg/mL] | Efficacy [2] [%] | other results |
| --- | --- | --- | --- |
| CN/C(=N/C#N)NCC#CC#Cc1cccc(Cl)c1 | 0.056 (≈ 0.207 µM) | 0 | – |
| CN/C(=N\C#N)NCCCCCc1cccc(Br)c1 | 0.048 (≈ 0.148 µM) | 19 | – |
| CN/C(=N\C#N)NCc1cccc(-c2cccc(Cl)c2)c1 | 0.04 (≈ 0.134 µM) | 38 | – |
| C#Cc1cccc(CCCCCN/C(=N/C#N)NC)c1 | 0.04 (≈ 0.149 µM) | 57 | – |
| CN/C(=N\C#N)NCCC[C@@H]1C[C@@H]1c1cccc(Cl)c1 | 0.032 (≈ 0.11 µM) | 57 | – |
| CN(C)/C(=N\C#N)N(C)CCCC#Cc1cccc(Cl)c1 | 0.014 (≈ 0.0462 µM) | 100 | EC50 [3]: 6.8 µM |
| CN/C(=N\C#N)NCCCCCc1cccc(Cl)c1 | 0.032 (≈ 0.115 µM) | 57 | – |
| CN/C(=N\C#N)NCc1ccccc1-c1cccc(Cl)c1 | 0.04 (≈ 0.134 µM) | 38 | – |
| CN(C)/C(=N\C#N)N(C)Cc1ccc(-c2cccc(S(F)(F)(F)(F)F)c2)cc1 | 0.014 (≈ 0.0335 µM) | 100 | Activity [4]: inactive; EC50 [3]: 1.8 µM |
| CN/C(=N\C#N)NCCCCCc1cccc(S(F)(F)(F)(F)F)c1 | 0.026 (≈ 0.0702 µM) | 71 | – |
| CN(C)/C(=N\C#N)N(C)Cc1ccc(-c2cccc(Cl)c2)cc1 | 0.014 (≈ 0.0428 µM) | 100 | EC50 [3]: 4 µM |
| CN/C(=N\C#N)NCCCC#Cc1cccc(Cl)c1 | 0.026 (≈ 0.0946 µM) | 71 | – |
| CN/C(=N\C#N)NCCCCCc1cccc(NS(C)(=O)=O)c1 | 0.04 (≈ 0.119 µM) | 38 | – |
| CN/C(=N\C#N)NCCCCCc1cccc(C)c1 | 0.032 (≈ 0.124 µM) | 57 | – |
| CN/C(=N/C#N)NCc1ccc(-c2cccc(Cl)c2)cc1 | 0.014 (≈ 0.0469 µM) | 100 | – |
| CN/C(=N\C#N)NCCCCCc1cccc(S(C)(=O)=O)c1 | 0.04 (≈ 0.124 µM) | 38 | – |

| SMILES | MIC [1] [µg/mL] | Efficacy [2] [%] | other results |
| --- | --- | --- | --- |
| Clc1cccc(CCCCCN2CCOCC2)c1 | 0.056 (≈ 0.209 µM) | 0 | – |
| CN/C(=N\C#N)NCCCC#Cc1cccc(S(F)(F)(F)(F)F)c1 | 0.02 (≈ 0.0546 µM) | 100 | – |
| CN(C)/C(=N\C#N)N(C)CCCCCc1cccc(Cl)c1 | 0.026 (≈ 0.0847 µM) | 71 | – |
| CN/C(=N\C#N)NCCCCCc1cccc(I)c1 | 0.056 (≈ 0.151 µM) | 0 | – |
| OCCCCCc1cccc(Cl)c1 | 0.056 (≈ 0.282 µM) | 0 | – |
| CN/C(=N\C#N)NCCC/C=C/c1cccc(Cl)c1 | 0.026 (≈ 0.0939 µM) | 71 | – |
| Clc1cccc(CCCCCn2ccnc2)c1 | 0.04 (≈ 0.161 µM) | 38 | – |
| CN/C(=N\C#N)NCCCCCc1cccc(F)c1 | 0.04 (≈ 0.152 µM) | 38 | Efficacy [5]: 92%; EC50 [3]: > 30 µM |
| COCCCCCc1cccc(Cl)c1 | 0.056 (≈ 0.263 µM) | 0 | – |
| CN/C(=N\C#N)NCCCNC(=O)c1cccc(Cl)c1 | 0.056 (≈ 0.191 µM) | 0 | – |
| CN/C(=N\C#N)NCCC/C=C\c1cccc(Cl)c1 | 0.026 (≈ 0.0939 µM) | 71 | – |
| CN/C(=N\C#N)NCCC[C@H]1C[C@@H]1c1cccc(Cl)c1 | 0.032 (≈ 0.11 µM) | 57 | – |
| CN/C(=N\C#N)NCCCCc1cccc(Cl)c1 | 0.04 (≈ 0.151 µM) | 38 | – |
| CN(C)/C(=N\C#N)N(C)CCCC#Cc1cccc(S(F)(F)(F)(F)F)c1 | 0.014 (≈ 0.0355 µM) | 100 | EC50 [3]: 6.8 µM |
| CN/C(=N\C#N)NCCCCCc1cccc(C#N)c1 | 0.032 (≈ 0.119 µM) | 57 | – |
| CCn1cc(C(=O)O)c(=O)c2cc(F)c(N3CCNCC3)cc21 [NORFLOXACIN] | – | – | Efficacy [6]: 0%; MIC [7]: 0.014 µg/mL (≈ 0.0438 µM); MIC [8]: 0.056 µg/mL (≈ 0.175 µM); Efficacy [9]: 100% |
